Data from patent US6399088B1, “Citric acid tri-alkylamide surfactants” (Air Products and Chemicals, Inc., priority 2000, dated 2002).
Marks after values point to notes of the source that are not given here.

Tests used:
Assay type in all cases: physicochemical
[1] = Solubility limit in water
Procedure: (§1) The solubility limits of Examples 6 and 7 were determined by intersection of the linear portion of a surface tension/In (concentration) curve with the limiting surface tension as is described in many textbooks. Since Example 8 contained insoluble material at 0.005 wt %, the solubility limit is reported as <0.005 wt %. Also, the solubility limit of ˜10 wt % reported for Example 1 is the lowest concentration at which a significant amount of insoluble material was seen. The relative efficiency of surfactants can be obtained by comparing surface tension reduction of solutions containing the same amount of different surfactants. Such data is given for 0.1 wt % solutions of the tri-alkylcitramides at 1.0 and 6.0 b/s. The limiting surface tensions at 0.1, 1, 6 and 20 b/s represent the lowest surface tensions in water which can be achieved at the given surface creation rates for a given surfactant regardless of the amount of surfactant used and is used to evaluate the effectiveness of a surfactant. These values give information about the relative ability of a surfactant to reduce surface defects under near-equilibrium conditions (0.1 b/s) through very dynamic conditions (20 b/s). Lower surface tensions would allow the elimination of defects upon application of a formulation onto lower energy surfaces.

[2] = Dynamic surface tension of aqueous solutions, maximum-bubble pressure method; settings: for γ (0.1 wt % solution) (1 b/s) / γ (0.1 wt % solution) (6 b/s): 0.1 wt % solution in water
Procedure: Solutions of the citramides of Examples 1-4 in distilled water were prepared. Dynamic surface tension data were obtained using the maximum-bubble pressure method at bubble rates from 0.1 bubbles/second (b/s) to 20 b/s as described in Langmuir 1986, 2, 428-432. […] In practical terms, high bubble rates correspond to high printing speeds in lithographic printing, high spray or roller velocities in coating applications, rapid application rates for agricultural products and electronics cleaning and processing.
as §1

[3] = Foam test based upon ASTM D 1173-53; settings: 0.1 wt % solution; for initial foam: foam height at completion of addition
Procedure: The foaming properties of a 0.1 wt % solutions of the tri-alkylcitramides (N,N′,N″-tri-n-propylcitramide, N, N′, N″-tri-n-butylcitramide, N, N′, N″-tri-iso-butylcitramide and N,N′,N″-tri-iso-amylcitramide) were examined using a procedure based upon ASTM D 1173-53. In this test, a 0.1 wt % solution of the citramide surfactant was added from an elevated glass pipette to a receiver containing the same solution. The foam height was measured at the completion of the addition (“Initial Foam Height”) and the time required for the foam to dissipate at the air-liquid interface (“Time to 0 Foam”) was recorded. This test provided a comparison between the foaming characteristics of the various citramides. In general, in coatings, inks, adhesives, agricultural and electronics cleaning formulations, foam is undesirable because it complicates handling and can lead to coating and print defects, and to inefficient application of materials.

[4] = in water, from observed insoluble material
[5] = limiting surface tension in water, 0.1 bubbles/second
[6] = limiting surface tension in water, 1 bubble/second
[7] = limiting surface tension in water, 6 bubbles/second
[8] = limiting surface tension in water, 20 bubbles/second

SMILES	solubility limit ([1]; in distilled water)	solubility limit [1, 4] [wt %]	γ (0.1 wt % solution) (1 b/s) ([2]; 1 b/s) [Dyne/cm]	γ (0.1 wt % solution) (6 b/s) ([2]; 6 b/s) [Dyne/cm]	dynamic surface tension (0.1 b/s) ([2]; added to water at 5 wt %, material remained undissolved, 0.1 b/s) [dyne/cm]	dynamic surface tension (1 b/s) ([2]; added to water at 5 wt %, material remained undissolved, 1 b/s) [dyne/cm]	dynamic surface tension (6 b/s) ([2]; added to water at 5 wt %, material remained undissolved, 6 b/s) [dyne/cm]	dynamic surface tension (20 b/s) ([2]; added to water at 5 wt %, material remained undissolved, 20 b/s) [dyne/cm]	γ limiting (0.1 b/s) ([2]; limiting γ at 0.005 wt. % surfactant, 0.1 b/s)	γ limiting (1 b/s) ([2]; limiting γ at 0.005 wt. % surfactant, 1 b/s)	γ limiting (6 b/s) ([2]; limiting γ at 0.005 wt. % surfactant, 6 b/s)	γ limiting (20 b/s) ([2]; limiting γ at 0.005 wt. % surfactant, 20 b/s)	time to zero foam [3] [s]	initial foam [3] [cm]	γ limiting (0.1 b/s) [2, 5] [Dyne/cm]	γ limiting (1 b/s) [2, 6] [Dyne/cm]	γ limiting (6 b/s) [2, 7] [Dyne/cm]	γ limiting (20 b/s) [2, 8] [Dyne/cm]	relative solubility in water ([1]; in comparison to N,N′,N″-tri-iso-butylcitramide)
CC(C)CCNC(=O)CC(O)(CC(=O)NCCC(C)C)C(=O)NCCC(C)C [Example 4, N,N′,N″-tri-iso-amylcitramide]	<0.005 Weight %	< 0.005	63.3	66.6	45.7	45.9	46.4	47.4	51.6^c Dyne/cm	62.6^c Dyne/cm	67.0^c Dyne/cm	71.4^c Dyne/cm	2	1.3					
CCCNC(=O)CC(O)(CC(=O)NCCC)C(=O)NCCC [Example 1, N,N′,N″-tri-n-propylcitramide]	˜10 Weight %	~10	66.7	67.2									10	2.8	42.9	43.1	43.7	44.9	
CC(C)CNC(=O)CC(O)(CC(=O)NCC(C)C)C(=O)NCC(C)C [Example 3, N,N′,N″-tri-iso-butylcitramide]	0.2 Weight %		51.8	52.5									10	1.0	46.6	46.8	47.3	48.4	
CCCCNC(=O)CC(O)(CC(=O)NCCCC)C(=O)NCCCC [Example 2, N,N′,N″-tri-n-butylcitramide]	0.4 Weight %		51.2	52.6									9	1.3	43.6	43.9	44.6	46.2	more soluble
